Laboratory results from article PMC11915372, “Identification of a Series Containing a Pentafluorophenyl Moiety That Targets Pks13 to Inhibit Growth of Mycobacterium tuberculosis” (ACS Infectious Diseases, 2025).
Converted amounts (≈) assume the structure as drawn. Read-outs that look alike come from different tables or passages of the source.

Tests used:
physchem [1] = conditions: pH 7.4
M. tuberculosis (H37Rv) = assay: microbe, parasite or virus in culture; assay type: cell-based, Mycobacterium tuberculosis; conditions: for MIC: Mycobacterium tuberculosis, H37RV
[2] = assay type: in vitro ADME, mouse
physchem [3] = assay type: physicochemical
[4] = assay type: in vitro ADME, mouse; remark: listed apart in the source
HepG2 cells = assay: HepG2 cytotoxicity; conditions: Homo sapiens, HepG2, read-out: HepG2 inhibitory concentration (IC50)
Description: Assays to establish HepG2 cytotoxicity, in vitro microsomal/hepatocyte metabolic stability, aqueous kinetic solubility, and in vivo pharmacokinetic profiles were all performed as previously described.[15],[35]−[37]

[5] = read-out: Wk2_7H9/DPPC/ casitone/ Tyloxapol MIC
[6] = read-out: Wk2_7H9/glucose/ BSA/Tyloxapol MIC
[7] = read-out: Wk2_7H9/glucose/ casitone/ Tyloxapol MIC
[8] = intrinsic clearance (Cli), CD1 mouse liver microsomes, Tables 1-4
[9] = kinetic solubility in water, read-out: Kin. Sol
[10] = pH 7.4, aqueous buffer, kinetic from dmso stock, pH7.4, read-out: Kinetic Solubility pH7.4
[11] = read-out: Wk2_ 7H9/DPPC/ cholesterol/BSA/ Tyloxapol MIC
[12] = pH 7.4, aqueous buffer, kinetic from dmso stock

Row | Compound | MIC (M. tuberculosis (H37Rv); read-out: H37Rv MIC A) [µM] | MIC (M. tuberculosis (H37Rv); [5]) [µM] | MIC (M. tuberculosis (H37Rv); [6]) [µM] | MIC (M. tuberculosis (H37Rv); [7]) [µM] | IC50 (HepG2 cells) [µM] | MIC (M. tuberculosis (H37Rv); read-out: H37Rv MIC B) [µM] | MIC (M. tuberculosis (H37Rv); [11]) [µM] | Microsomal Cli ([2]; CD1, mouse) [mL/min/g] | Mouse micro Cl ([2]; mouse, microsomes) [mLmin/g] | solubility kinetic (physchem [3]; [12]) [µM] | solubility kinetic (physchem [3]; read-out: Kin. Sol) [µM] | other results
1 | COC(=O)c1nn(C)cc1NC(=O)c1c(F)c(F)c(F)c(F)c1F [Compound 19, COC(=O)c1nn(cc1NC(=O)c1c(c(c(c(c1F)F)F)F)F)C] | 0.15 (≈ 0.0524 µg/mL) | 0.15 (≈ 0.0524 µg/mL) | 0.3 (≈ 0.105 µg/mL) | 0.2 (≈ 0.0698 µg/mL) | > 100 |  |  |  |  |  |  | chromatographic logD (physchem [1]): 2.7; Mouse micro Cl [2, 8]: 23 mLmin/g; Microsomal Cli ([2]; supplement data table): 23 mL/min/g; solubility kinetic (physchem [3]; [9]): 55 µM (≈ 19.2 µg/mL); solubility kinetic (physchem [3]; [10]): 55 µM (≈ 19.2 µg/mL); Mouse Heps Cl ([4]; intrinsic clearance (Cli), mouse hepatocytes, Tables 1-4): >50 mLmin/g; Hepatocyte Cli ([4]; supplement data table): >50 mL/min/g
2 | CCOC(=O)c1c(NC(=O)c2c(F)c(F)c(F)c(F)c2F)ncn1C [Compound 21, CCOC(=O)c1c(ncn1C)NC(=O)c1c(c(c(c(c1F)F)F)F)F] | 2.3 (≈ 0.835 µg/mL) | 2.3 (≈ 0.835 µg/mL) | 4.7 (≈ 1.71 µg/mL) | 1.6 (≈ 0.581 µg/mL) | > 100 | 6.3 (≈ 2.29 µg/mL) | 6.3 (≈ 2.29 µg/mL) |  |  |  |  | chromatographic logD (physchem [1]): 2.2; loss of MIC potency (M. tuberculosis (H37Rv); relative to comparator of the series (21 vs thiophenes; 42 vs 24)): 10 fold; Mouse micro Cl [2, 8]: 8.6 mLmin/g; Microsomal Cli ([2]; supplement data table): 8.6 mL/min/g; solubility kinetic (physchem [3]; [9]): 203 µM (≈ 73.7 µg/mL); solubility kinetic (physchem [3]; [10]): 203 µM (≈ 73.7 µg/mL)
3 | Fc1c(F)c(F)c(-c2nc3c(N4CCOCC4)ncnc3s2)c(F)c1F [Compound 9, Fc1c(c(c(c(c1F)F)-c1nc2c(ncnc2s1)N1CCOCC1)F)F] |  |  | 0.6 (≈ 0.233 µg/mL) | 0.07 (≈ 0.0272 µg/mL) | > 100 | 0.6 (≈ 0.233 µg/mL) | 0.6 (≈ 0.233 µg/mL) | 43 | 43 | 2.8 (≈ 1.09 µg/mL) | 2.8 (≈ 1.09 µg/mL) | 
4 | CCN(CC)c1ncnc2sc(-c3c(F)c(F)c(F)c(F)c3F)nc12 [Compound 8, CCN(CC)c1ncnc2sc(nc12)-c1c(c(c(c(c1F)F)F)F)F] | 0.3 (≈ 0.112 µg/mL) | 0.3 (≈ 0.112 µg/mL) | 0.8 (≈ 0.299 µg/mL) | 0.4 (≈ 0.15 µg/mL) | > 100 | 0.78 (≈ 0.292 µg/mL) | 0.8 (≈ 0.299 µg/mL) | 26 | 26 | 0.142 (≈ 0.0532 µg/mL) |  | solubility kinetic (physchem [3]; water, kinetic from dmso stock): 0.1 µM (≈ 0.0374 µg/mL)
5 | CN(C)c1ncnc2sc(-c3cc(F)c(F)c(F)c3)nc12 [Compound 4, CN(C)c1ncnc2sc(nc12)-c1cc(c(c(c1)F)F)F] | > 50 | > 50 | > 50 | > 50 | > 100 | > 50 | > 50 | >50 | >50 |  |  | 
6 | CN(C)c1nccc2oc(-c3c(F)c(F)c(F)c(F)c3F)nc12 [Compound 14, CN(C)c1nccc2oc(nc12)-c1c(c(c(c(c1F)F)F)F)F] | 3.1 (≈ 1.02 µg/mL) | 3.1 (≈ 1.02 µg/mL) | 6.3 (≈ 2.07 µg/mL) | 3.1 (≈ 1.02 µg/mL) | > 100 | 9.4 (≈ 3.09 µg/mL) | 9.4 (≈ 3.09 µg/mL) | >50 | >50 |  |  | Hepatocyte Cli ([4]; mouse): >50 mL/min/g; Mouse Heps Cl ([4]; mouse, hepatocytes): >50 mLmin/g
7 | CN(C)c1ncnc2c1nc(-c1c(F)c(F)c(F)c(F)c1F)n2C [Compound 7, CN(C)c1ncnc2n(c(nc12)-c1c(c(c(c(c1F)F)F)F)F)C] | 1.9 (≈ 0.652 µg/mL) | 1.9 (≈ 0.652 µg/mL) | > 50 | 1.7 (≈ 0.584 µg/mL) | > 100 | > 50 | > 50 | 8.4 | 8.4 | 26 (≈ 8.92 µg/mL) | 26 (≈ 8.92 µg/mL) | 
8 | CN(C)c1ccnc2oc(-c3c(F)c(F)c(F)c(F)c3F)nc12 [Compound 13, CN(C)c1ccnc2oc(nc12)-c1c(c(c(c(c1F)F)F)F)F] | 0.6 (≈ 0.198 µg/mL) | 0.6 (≈ 0.198 µg/mL) | 2.3 (≈ 0.757 µg/mL) | 0.6 (≈ 0.198 µg/mL) |  | 3.1 (≈ 1.02 µg/mL) | 3.1 (≈ 1.02 µg/mL) | >50 | >50 | 1.6 (≈ 0.527 µg/mL) | 1.6 (≈ 0.527 µg/mL) | Hepatocyte Cli ([4]; mouse): >50 mL/min/g; Mouse Heps Cl ([4]; mouse, hepatocytes): >50 mLmin/g
9 | Fc1c(F)c(F)c(-c2nc3cncnc3s2)c(F)c1F [Compound 11, Fc1c(c(c(c(c1F)F)-c1nc2cncnc2s1)F)F] | 0.34 (≈ 0.103 µg/mL) | 0.342 (≈ 0.104 µg/mL) | 4.7 (≈ 1.43 µg/mL) | 0.279 (≈ 0.0846 µg/mL) | 35 | 6.3 (≈ 1.91 µg/mL) | 6.3 (≈ 1.91 µg/mL) | 18 | 18 | 103 (≈ 31.2 µg/mL) | 103 (≈ 31.2 µg/mL) | 
